Experimental data from patent US20060069132A1, “Azolecarboxamide herbicides” (priority 2004, published 2006).

Experiments:
[1] = tested on: barnyardgrass; experiment: Test B pre-/postemergence herbicide test; type: in vivo, Echinochloa crus-galli; details: for Barnyardgrass plant response rating: postemergence, scale 0 (no effect) to 100 (complete control)
Summary of the method: (§1)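 Flooded paddy rice and barnyardgrass were treated at the 2-leaf stage; upland plantings received compound either on sown seed or on 1- to 4-leaf seedlings. All were kept 13–15 days in a greenhouse and scored visually, 0–100, relative to untreated plants.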

[2] = tested on: Surinam grass; experiment: Test B pre-/postemergence herbicide test; type: in vivo, Urochloa decumbens; details: for Surinam Grass plant response rating: postemergence, scale 0 (no effect) to 100 (complete control)
Summary of the method: (§2)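 Response was scored visually 13 to 15 days after treatment against untreated greenhouse controls, 0 meaning no effect and 100 complete control. Formulations (solvent mixture plus surfactant) went onto soil after planting, onto foliage of 1- to 4-leaf plants, and onto 2-leaf plants in a flooded paddy set including rice and barnyardgrass.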

[3] = tested on: cocklebur; experiment: Test B pre-/postemergence herbicide test; type: in vivo, Xanthium strumarium; details: for Cocklebur plant response rating: postemergence, scale 0 (no effect) to 100 (complete control)
Summary of the method: as §1

[4] = tested on: corn; experiment: Test B pre-/postemergence herbicide test; type: in vivo, Zea mays; details: for Corn plant response rating: postemergence, scale 0 (no effect) to 100 (complete control)
Summary of the method: as §2

[5] = tested on: large crabgrass; experiment: Test B pre-/postemergence herbicide test; type: in vivo, Digitaria sanguinalis; details: for Crabgrass, Large plant response rating: postemergence, scale 0 (no effect) to 100 (complete control)
Summary of the method: as §2

[6] = tested on: giant foxtail; experiment: Test B pre-/postemergence herbicide test; type: in vivo, Setaria faberi; details: for Foxtail, Giant plant response rating: postemergence, scale 0 (no effect) to 100 (complete control)
Summary of the method: as §2

[7] = tested on: lambsquarters; experiment: Test B pre-/postemergence herbicide test; type: in vivo, Chenopodium album; details: visual rating; for Lambsquarters plant response rating: postemergence, scale 0 (no effect) to 100 (complete control)
Summary of the method: as §2

[8] = tested on: morningglory; experiment: Test B pre-/postemergence herbicide test; type: in vivo, Ipomoea coccinea; details: for Morningglory plant response rating: postemergence, scale 0 (no effect) to 100 (complete control)
Summary of the method: as §1

[9] = tested on: pigweed; experiment: Test B pre-/postemergence herbicide test; type: in vivo, Amaranthus retroflexus; details: for Pigweed plant response rating: postemergence, scale 0 (no effect) to 100 (complete control)
Summary of the method: as §2

[10] = tested on: rice; experiment: Test B pre-/postemergence herbicide test; type: in vivo, Oryza sativa; details: 0 = no effect, 100 = complete control, preemergence
Summary of the method: as §2

[11] = tested on: velvetleaf; experiment: Test B pre-/postemergence herbicide test; type: in vivo, Abutilon theophrasti; details: for Velvetleaf plant response rating: postemergence, scale 0 (no effect) to 100 (complete control)
Summary of the method: as §2

[12] = tested on: blackgrass; experiment: Test B postemergence herbicide test; type: in vivo, Alopecurus myosuroides; details: postemergence, visual rating, scale 0 (no effect) to 100 (complete control)
Summary of the method: (§3)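 After treating 2-leaf paddy plants or 2–18 cm postemergence plants (1 to 4 leaves) with formulated chemical, researchers kept them in a greenhouse for 13–15 days. Effects were judged visually versus controls: 0 indicates none, 100 total control.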

[13] = tested on: wheat; experiment: Test B postemergence herbicide test; type: in vivo, Triticum aestivum; design: key to Wheat plant response rating: 0 = no effect, 100 = complete control; details: postemergence, visual rating, scale 0 (no effect) to 100 (complete control)
Summary of the method: (§4)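 Visual ratings, 0 (no effect) to 100 (complete control), made versus controls after 13–15 d greenhouse. Paddy plants treated at 2-leaf stage; postemergence plants at 1- to 4-leaf stage, 2–18 cm tall.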

[14] = tested on: wild oat; experiment: Test B postemergence herbicide test; type: in vivo, Avena fatua; details: postemergence, visual rating, scale 0 (no effect) to 100 (complete control)
Summary of the method: as §4

[15] = tested on: rice; experiment: Test B flooded paddy test; type: in vivo, Oryza sativa; details: 1000 g ai/ha, visual rating, scale 0 to 100 (0 no effect, 100 complete control), 13 to 15 days
Summary of the method: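 Postemergence plants were sprayed with formulated test chemicals at 2 to 18 cm height (1- to 4-leaf stage); paddy species were grown to the 2-leaf stage. After 13 to 15 days in a greenhouse, injury was rated visually against untreated controls on a 0–100 scale (0 = no effect, 100 = complete control).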

[16] = tested on: small flower umbrella sedge; experiment: Test B flooded paddy test; type: in vivo, Cyperus difformis; details: 1000 g ai/ha, visual rating, scale 0 to 100 (0 no effect, 100 complete control), 13 to 15 days
Summary of the method: as §3

[17] = tested on: ducksalad; experiment: Test B flooded paddy test; type: in vivo, Heteranthera limosa; details: 1000 g ai/ha, visual rating, scale 0 to 100 (0 no effect, 100 complete control), 13 to 15 days
Summary of the method: as §3

[18] = tested on: barnyardgrass; experiment: Test B flooded paddy test; type: in vivo, Echinochloa crus-galli; details: 1000 g ai/ha, visual rating, scale 0 to 100 (0 no effect, 100 complete control), 13 to 15 days
Summary of the method: as §3

[19] = tested on: rice; experiment: Test C flooded paddy test; type: in vivo, Oryza sativa
Summary of the method: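 Postemergence sprays applied to plants 2 to 18 cm tall (1- to 4-leaf stage); paddy species grown to 2-leaf stage under flooding. After 12 to 14 days in greenhouse, visual rating versus untreated controls on 0–100 scale (0 no effect, 100 complete control).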

[20] = tested on: smallflower umbrella sedge; experiment: Test C flooded paddy test; type: in vivo, Cyperus difformis
[21] = tested on: ducksalad; experiment: Test C flooded paddy test; type: in vivo, Heteranthera limosa
[22] = tested on: barnyardgrass; experiment: Test C flooded paddy test; type: in vivo, Echinochloa crus-galli
Summary of the method: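 Injury scored visually against controls on a 0 (no effect) to 100 (complete control) scale, 12 to 14 days after treatment in greenhouse. Flooded paddy plants treated at 2-leaf stage; postemergence plants at 1- to 4-leaf stage, 2 to 18 cm tall.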

[23] = 125 g ai/ha, 0 = no effect, 100 = complete control, preemergence
[24] = 500 g ai/ha, visual rating, 0 = no effect, 100 = complete control, preemergence
[25] = 62 g ai/ha, scale 0 to 100 (0 no effect, 100 complete control)
[26] = 125 g ai/ha, scale 0 to 100 (0 no effect, 100 complete control)
[27] = 250 g ai/ha, scale of 0 to 100, 0 is no effect, 100 is complete control
[28] = 500 g ai/ha, visual rating after 12 to 14 days, scale 0 to 100 (0 no effect, 100 complete control)

## CCNC(=O)c1ccc(F)c(NC(=O)c2sc(C(C)(C)C)nc2CC)c1 [Compound 226]
[1]; [23]
  Barnyardgrass plant response rating (0 to 100 scale): 10
[1]; [24]
  Plant response rating, Barnyardgrass: 60
[1]; 125 g ai/ha, visual rating
  Barnyardgrass plant response rating: 10
[1]; 500 g ai/ha, visual rating
  Barnyardgrass plant response rating: 20
[2]; [23]
  Surinam Grass plant response rating (0 to 100 scale): 10
[2]; [24]
  Plant response rating, Surinam Grass: 40
[2]; 125 g ai/ha, visual rating
  Surinam Grass plant response rating: 10
[2]; 500 g ai/ha, visual rating
  Surinam Grass plant response rating: 20
[3]; [23]
  Cocklebur plant response rating (0 to 100 scale): 0
[3]; [24]
  Plant response rating, Cocklebur: 0
[3]; 125 g ai/ha, visual rating
  Cocklebur plant response rating: 10
[3]; 500 g ai/ha, visual rating
  Cocklebur plant response rating: 20
[4]; [23]
  Corn plant response rating (0 to 100 scale): 0
[4]; [24]
  Plant response rating, Corn: 20
[4]; 125 g ai/ha, visual rating
  Corn plant response rating: 10
[4]; 500 g ai/ha, visual rating
  Corn plant response rating: 40
[5]; [23]
  Crabgrass, Large plant response rating (0 to 100 scale): 20
[5]; [24]
  Plant response rating, Crabgrass, Large: 100
[5]; 125 g ai/ha, visual rating
  Crabgrass, Large plant response rating: 20
[5]; 500 g ai/ha, visual rating
  Crabgrass, Large plant response rating: 20
[6]; [23]
  Foxtail, Giant plant response rating (0 to 100 scale): 20
[6]; [24]
  Plant response rating, Foxtail, Giant: 70
[6]; 125 g ai/ha, visual rating
  Foxtail, Giant plant response rating: 20
[6]; 500 g ai/ha, visual rating
  Foxtail, Giant plant response rating: 20
[7]; 500 g ai/ha, 0 = no effect, 100 = complete control, preemergence
  Plant response rating, Lambsquarters: 90
[7]; 125 g ai/ha
  Lambsquarters plant response rating: 40
[7]; 500 g ai/ha
  Lambsquarters plant response rating: 60
[8]; [23]
  Morningglory plant response rating (0 to 100 scale): 0
[8]; [24]
  Plant response rating, Morningglory: 10
[8]; 125 g ai/ha, visual rating
  Morningglory plant response rating: 30
[8]; 500 g ai/ha, visual rating
  Morningglory plant response rating: 80
[9]; [23]
  Pigweed plant response rating (0 to 100 scale): 40
[9]; [24]
  Plant response rating, Pigweed: 70
[9]; 125 g ai/ha, visual rating
  Pigweed plant response rating: 30
[9]; 500 g ai/ha, visual rating
  Pigweed plant response rating: 60
[10]; 125 g ai/ha
  Rice plant response rating (0 to 100 scale): 20
[10]; 500 g ai/ha, visual rating
  Plant response rating, Rice: 30
[11]; [23]
  Velvetleaf plant response rating (0 to 100 scale): 10
[11]; [24]
  Plant response rating, Velvetleaf: 50
[11]; 125 g ai/ha, visual rating
  Velvetleaf plant response rating: 20
[11]; 500 g ai/ha, visual rating
  Velvetleaf plant response rating: 20
[12]; 125 g ai/ha
  Blackgrass plant response rating: 20
[12]; 500 g ai/ha
  Blackgrass plant response rating: 20
[13]; 125 g ai/ha
  Wheat plant response rating: 20
[13]; 500 g ai/ha
  Wheat plant response rating: 30
[14]; 125 g ai/ha
  Oat, Wild plant response rating: 30
[14]; 500 g ai/ha
  Oat, Wild plant response rating: 30
[15]
  Rice plant response rating: 80
[16]
  Sedge, Umbrella plant response rating: 80
[17]
  Ducksalad plant response rating: 70
[18]
  Barnyardgrass plant response rating: 80
[19]; [25]
  Rice plant response rating: 0
[19]; [26]
  Rice plant response rating: 25
[19]; [27]
  Rice plant response rating: 45
[19]; [28]
  Plant response rating, Rice: 70
[20]; [25]
  Sedge, Umbrella plant response rating: 10
[20]; [26]
  Sedge, Umbrella plant response rating: 10
[20]; [27]
  Sedge, Umbrella plant response rating: 40
[20]; [28]
  Plant response rating, Sedge, Umbrella: 70
[21]; [25]
  Ducksalad plant response rating: 0
[21]; [26]
  Ducksalad plant response rating: 0
[21]; [27]
  Ducksalad plant response rating: 40
[21]; [28]
  Plant response rating, Ducksalad: 65
[22]; [25]
  Barnyardgrass plant response rating: 0
[22]; [26]
  Barnyardgrass plant response rating: 0
[22]; [27]
  Barnyardgrass plant response rating: 50
[22]; [28]
  Plant response rating, Barnyardgrass: 60
